How the values were obtained:
human PDE10A = biological target: T1, human PDE10A (Homo sapiens, UniProt Q9Y233); test: human PDE10A full length Scintillation Proximity Assay (SPA); format: biochemical; details: 50 nM cGMP and 50 nM [3H]-cGMP, 20 minutes at room temperature; read-out: PDE10A inhibition IC50
T1 construct: The human PDE10A full length assay; purchased Enzo Life Science, Lausen, Switzerland SE-534
How it was run: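 Full-length enzyme at 3.75 ng/well in 20 mM HEPES pH 7.5, 10 mM MgCl2, 0.05 mg/ml BSA, with 50 nM cGMP plus 50 nM [3H]-cGMP substrate, 20 min at room temperature. Stopped with YSi-SPA beads in zinc sulphate and counted by scintillation. IC50 from inhibitor concentration series; no-enzyme wells define background.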

rats = details: sub-chronic treatment with PCP; cited from earlier work

T1 sequence (Q9Y233 1-779 isoform Q9Y233-1): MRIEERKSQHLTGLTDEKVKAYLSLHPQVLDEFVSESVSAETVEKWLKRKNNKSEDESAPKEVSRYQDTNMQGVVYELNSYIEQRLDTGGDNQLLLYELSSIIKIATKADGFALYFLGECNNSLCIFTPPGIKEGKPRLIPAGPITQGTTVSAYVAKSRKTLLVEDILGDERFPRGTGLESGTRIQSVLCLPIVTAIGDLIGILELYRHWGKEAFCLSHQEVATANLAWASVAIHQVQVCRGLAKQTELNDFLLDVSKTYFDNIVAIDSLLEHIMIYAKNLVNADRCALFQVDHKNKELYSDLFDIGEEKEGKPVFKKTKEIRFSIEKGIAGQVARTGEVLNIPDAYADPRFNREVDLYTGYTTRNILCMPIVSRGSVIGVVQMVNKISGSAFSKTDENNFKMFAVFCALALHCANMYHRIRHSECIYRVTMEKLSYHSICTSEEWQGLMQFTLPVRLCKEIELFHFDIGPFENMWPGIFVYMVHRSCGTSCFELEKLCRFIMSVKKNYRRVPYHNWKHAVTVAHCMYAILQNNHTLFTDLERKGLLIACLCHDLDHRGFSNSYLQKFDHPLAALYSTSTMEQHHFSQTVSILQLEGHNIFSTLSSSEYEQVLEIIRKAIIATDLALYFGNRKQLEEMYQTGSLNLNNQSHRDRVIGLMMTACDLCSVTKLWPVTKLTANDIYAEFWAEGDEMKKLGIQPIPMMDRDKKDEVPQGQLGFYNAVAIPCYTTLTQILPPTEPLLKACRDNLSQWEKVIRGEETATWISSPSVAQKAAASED

Structure (SMILES)	IC50 (human PDE10A) [nM]	melting point [°C]	deficits in the extra-dimensional shift learning (rats)
Cc1ncc(Cl)c(C(=O)Nc2ccn3cc(-c4ccccc4)nc3n2)n1 [Example 79, 5-Chloro-2-methyl-N-(2-phenylimidazo[1,2-a]pyrimidin-7-yl)pyrimidine-4-carboxamide]	247	> 250	–
Cc1cc(C(=O)Nc2ccn3cc(-c4ccccc4)nc3n2)cc(Cl)n1 [Example 81, 2-Chloro-6-methyl-N-(2-phenylimidazo[1,2-a]pyrimidin-7-yl)isonicotinamide]	703	148 to 151	–
Cc1cc(C(=O)Nc2ccn3cc(-c4ccccc4)nc3n2)ccn1 [Example 80, 2-Methyl-N-(2-phenylimidazo[1,2-a]pyrimidin-7-yl)isonicotinamide]	496	255 to 257	–
COc1ncccc1C(=O)Nc1ccn2cc(-c3ccccc3)nc2n1 [Example 78, 2-Methoxy-N-(2-phenylimidazo[1,2-a]pyrimidin-7-yl)nicotinamide]	125	225 to 226	–
COc1ccc(Cc2nccc3cc(OC)c(OC)cc23)cc1OC [papaverine, Papaverine]	–	–	attenuate the deficits in the extra-dimensional shift learning
Cc1cc(CNC(=O)c2cnn(C)c2C(=O)Nc2ccn3cc(-c4ccccc4)nc3n2)no1 [Example 143, 1-methyl-N-4-((5-methylisoxazol-3-yl)methyl)-N5-(2-phenylimidazo[1,2-a]pyrimidin-7-yl)-1H-pyrazole-4,5-dicarboxamide]	162	–	–
